The target in one experiment is TmRibUΔCt (Thermotoga maritima, UniProt Q9X1G6). Description: X-ray crystallography, […] Å. It counts as binding. The note with it: co-purified substrate; extracellular pocket of TM4-6 and Loop1-2.
For the next experiment, the target named is TmRibU (Thermotoga maritima, UniProt Q9X1G6, N123A). Kind of experiment: thermal melting by analytical SEC peak height. The settings on record: NG detergent; difference of mutant to wild-type complex, no apo reference. It counts as binding.
Chain of TmRibU (Q9X1G6 whole entry N123A): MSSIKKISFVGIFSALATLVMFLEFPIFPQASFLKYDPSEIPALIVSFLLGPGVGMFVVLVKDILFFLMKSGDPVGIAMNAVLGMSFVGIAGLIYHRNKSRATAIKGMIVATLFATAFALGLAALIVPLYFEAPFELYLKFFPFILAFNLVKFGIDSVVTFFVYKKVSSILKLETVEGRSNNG

Chain of TmRibUΔCt (Q9X1G6 1-173, stated change not applied): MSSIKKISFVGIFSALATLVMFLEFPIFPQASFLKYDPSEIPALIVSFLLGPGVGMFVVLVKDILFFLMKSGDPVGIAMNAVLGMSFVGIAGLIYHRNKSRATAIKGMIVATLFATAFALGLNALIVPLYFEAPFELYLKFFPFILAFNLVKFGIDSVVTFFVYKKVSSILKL

Turning to `Cc1cc2nc3c(=O)[nH]c(=O)nc-3n(C[C@H](O)[C@H](O)[C@H](O)CO)c2cc1C` [riboflavin], on TmRibUΔCt, the “X-ray crystallography, 2.6 Å (also 3.2 and 3.4 Å)” value was “we determined the crystal structure of riboflavin-bound TmRibU”. In addition, the “decrease of Tm of riboflavin complex vs WT” value on TmRibU is ~ 23 °C.

The values are drawn from publication PMC4975955 (Journal of molecular biology, 2016).
